Test results reported in PMC11811597, “Phenomics‐Based Discovery of Novel Orthosteric Choline Kinase Inhibitors” (Angewandte Chemie (International Ed. in English), 2025).

Columns and labels:
PRCP = test: Competitive affinity-based chemoproteomics (UNC0965 matrix), PBMC cell extract; type: binding, human; details: 20 µM competitor, n=2
Protocol: (§1) described.[2] Lysates were precleared with bead slurry (100 μL) for 30 min at 4 °C and then treated with UNC0638 or UNC0737 (20 μM) or DMSO control for 30 min at 4 °C followed by incubation with affinity matrix for 2 h at 4 °C. Affinity matrices were washed with buffer A (5 mL) and proteins eluted with 100 μL of 2x Laemmli sample buffer, 100 mM DTT, in PBS and heating for 10 min at 90 °C.
(§2) Eluents (70 µL) were diluted in 0.1 M Tris (pH 7.8) to 200 µL, reduced with 5 mM DTT for 30 min at RT, and alkylated with 20 mM iodoacetamide for 30 min at RT in the dark. Proteins were precipitated by sequential addition of MeOH (600 µL), CHCl3 (150 µL) and H2O (450 µL), pelleted (17,000 × g, 5 min), washed with further MeOH (2 × 600 µL), and re-pelleted. Air dried pellets were resuspended in 50 μL 6 M urea (pH 7.8) by vortexing and then diluted with 250 μL H2O before adding 1 µg trypsin for overnight incubation at 37 °C. The digests were acidified with FA (1% v/v final concentration), desalted using SOLA HRP SPE Cartridges (Thermo Fisher), eluted with 69% v/v MeCN, 0.1% v/v FA in H2O (600 μL) and dried in vacuo. Dried peptides were stored at -20 °C before resuspension in 2% v/v MeCN, 0.1% v/v FA in H2O (20 μL) for LC-MS/MS analysis.
(§3) LC-MS/MS Data Acquisition
(§4) Digested samples were analysed by nano-UPLC–MS/MS using a Dionex Ultimate 3000 nano UPLC fitted with an EASY spray column (75 μm × 500 mm, 2 μm particle size, Thermo Scientific), coupled to an Orbitrap Q Exactive instrument. A 60 min gradient of 0.1% (v/v) formic acid in 5 % (v/v) DMSO to 0.1% (v/v) formic acid with 35% (v/v) acetonitrile in 5 % (v/v) DMSO at a flow rate of 250 nL min−1 was used. The instrument was operated in a data-dependant mode, with survey scans acquired at a resolution of 70,000 at 200 m/z and the 15 most abundant precursors selected for HCD fragmentation with an AGC target of […] ions.
(§5) Raw data was processed using MaxQuant[3] version 2.0.1.0 and the reference complete human proteome FASTA file (UniProt, downloaded 05.08.21). Label Free Quantification (LFQ) and Match Between Runs were selected; Cysteine carbamidomethylation was selected as a fixed modification, and methionine oxidation and asparagine deamidation as variable modifications. Default settings for identification and quantification were used. Specifically, a minimum peptide length of 7, a maximum of 2 missed cleavage sites, and a maximum of 5 labelled amino acids per peptide were allowed.
(§6) Through selection of the ‘trypsin/P’ general setting, peptide bond cleavage at arginine or lysine (followed by any amino acid) was considered during in silico digest of the reference proteome. […]
(§7) mode selected for both identification and quantification of proteins (razor peptides are uniquely assigned to protein groups and not to individual proteins).

PWP1 = test: as above; type: binding, human; details: 20 µM competitor, n=2
Protocol: as §1, §2, §3, §4, §5, §6, §7

SCARB2 = molecular target: T1, SCARB2 (Homo sapiens, UniProt Q14108); test: PISA thermal profiling, intact HepG2 cells; type: cell-based; details: 30 µM, 60 min, n=3
T1 construct: endogenous in cells; host or cells: intact HepG2 cells
T1 sequence (Q14108 whole entry): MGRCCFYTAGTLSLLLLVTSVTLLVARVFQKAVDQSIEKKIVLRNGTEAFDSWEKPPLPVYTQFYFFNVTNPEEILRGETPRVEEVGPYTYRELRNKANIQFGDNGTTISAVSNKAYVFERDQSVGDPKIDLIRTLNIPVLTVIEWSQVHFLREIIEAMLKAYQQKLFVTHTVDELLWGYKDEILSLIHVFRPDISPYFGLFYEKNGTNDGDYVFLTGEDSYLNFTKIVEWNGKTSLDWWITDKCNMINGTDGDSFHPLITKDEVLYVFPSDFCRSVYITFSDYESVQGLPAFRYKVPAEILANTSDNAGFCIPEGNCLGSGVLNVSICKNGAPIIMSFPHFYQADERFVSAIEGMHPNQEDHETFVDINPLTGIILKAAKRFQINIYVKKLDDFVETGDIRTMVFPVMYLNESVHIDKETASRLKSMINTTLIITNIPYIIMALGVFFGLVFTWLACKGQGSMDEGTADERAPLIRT
Protocol: (§8) To further corroborate our findings, we next performed the proteome integral solubility alteration (PISA) assay in HepG2 human hepatoma cells that express high levels of CHKA. Conceptually building on the cellular thermal shift assay (CETSA) with mass spectrometry based detection,[19, 20] PISA leverages compound‐mediated stabilisation of target proteins without the need of chemical modification in intact cells. […]
(§9) Experiments were performed as described earlier with few modifications. In short, 3 replicates of intact HepG2 cells were treated with 30 µM UNC0638, UNC373 or corresponding volume of DMSO in medium-free experimental buffer for 60 min at 37 °C with end-over-end rotation. For lysates: Washed […]
(§10) end-over-end rotation. Each treated cell suspension or lysate was divided into 12 aliquots and subjected to a 12-step heat gradient from 44 °C to 64 °C. All the temperature points were pooled together to form […] individual samples. Soluble fraction was separated from precipitated proteins […]
(§11) by centrifugation at 30,000 × g for 20 min at 4 °C. The soluble fractions were collected to fresh tubes and further processed to be analysed with mass spectrometry. Sample handling, TMT labelling, LC-MS/MS analysis, protein identification and data analysis was performed as described earlier.[12] […]
(§12) […]

TGOLN2 = molecular target: T2, TGOLN2 (Homo sapiens, UniProt O43493); test: PISA thermal profiling, intact HepG2 cells; type: cell-based; details: 30 µM, 60 min, n=3
T2 construct: endogenous in cells; host or cells: intact HepG2 cells
T2 sequence (O43493 22-437): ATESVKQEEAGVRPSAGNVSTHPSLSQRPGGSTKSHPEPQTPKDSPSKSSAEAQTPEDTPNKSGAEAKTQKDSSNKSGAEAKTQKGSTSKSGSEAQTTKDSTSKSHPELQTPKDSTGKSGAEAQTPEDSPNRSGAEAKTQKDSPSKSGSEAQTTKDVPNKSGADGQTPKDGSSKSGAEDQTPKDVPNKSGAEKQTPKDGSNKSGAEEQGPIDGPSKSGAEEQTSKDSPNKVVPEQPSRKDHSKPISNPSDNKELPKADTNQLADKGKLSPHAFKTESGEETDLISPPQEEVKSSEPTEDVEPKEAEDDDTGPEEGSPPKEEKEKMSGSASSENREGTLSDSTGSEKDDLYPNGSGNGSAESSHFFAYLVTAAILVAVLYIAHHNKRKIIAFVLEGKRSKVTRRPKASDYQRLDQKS
Protocol: as §8, §9, §10, §11, §12

COc1cc2c(NC3CCN(C(C)C)CC3)nc(C3CCCCC3)nc2cc1OCCCN1CCCC1 [UNC0638]
FC vs DMSO (log2 competition), PRCP (PRCP): -3.268 | FC vs DMSO (log2 competition), PWP1 (PWP1): -2.002 | effect_CETSA_Intact (PISA amplitude), SCARB2 (SCARB2): 0.251 | effect_CETSA_Intact (PISA amplitude), TGOLN2 (TGOLN2): 0.53

COc1cc2c(N(C)C3CCN(C(C)C)CC3)nc(C3CCCCC3)nc2cc1OCCCN1CCCC1 [UNC0737]
FC vs DMSO (log2 competition), PRCP (PRCP): -0.4338 | FC vs DMSO (log2 competition), PWP1 (PWP1): -0.1275 | effect_CETSA_Intact (PISA amplitude), SCARB2 (SCARB2): 0.514 | effect_CETSA_Intact (PISA amplitude), TGOLN2 (TGOLN2): 0.571
